Laboratory results reported in paper PMC7859440, “Transporter Gene Regulation in Sandwich Cultured Human Hepatocytes Through the Activation of Constitutive Androstane Receptor (CAR) or Aryl Hydrocarbon Receptor (AhR)” (Frontiers in Pharmacology, 2021).
“And” between values parts separate entries of the source, which are not always exact repeats. Identical values can stand only once.

What was measured:
CYP1A1 = assay: in vitro
Protocol: (§1) Cryopreserved human hepatocytes were quickly thawed at 37°C and then transferred into hepatocyte thawing medium. Cells were pelleted at 100 × g for 10 min and then resuspended in hepatocyte complete plating medium (CP medium). The cells were then seeded at 65,000 cells per well in 96-well collagen I coated plates. After cell attachment (4–6 h post-seeding), CP medium was exchanged for ice-cold complete incubation medium (HI medium) containing BD Matrigel™ at the concentration of 0.25 mg/ml. The cells were then incubated overnight at 37°C in a humidified 5% CO2 incubator. […] Cell death or loss of adhesion of hepatocytes during or after treatment were examined by microscopy.
A RNeasy 96 Kit (Qiagen) was used to extract the total cellular RNA from sandwich cultured hepatocytes in 96-well plates following the manufacturer's instructions. A total volume of 200 μL RNA was obtained via the column elution provided in the RNeasy kit. Five μL RNA extraction was mixed with TaqMan® Fast Virus 1-Step Master Mix (Life Technologies) in a final reaction volume of 20 μL and qRT-PCR was achieved using a QuantStudio 6 Flex Real-Time PCR System (Life Technologies), following the manufacturer's instructions. β-actin mRNA expression in the SCHH was used as a house-keeping gene for the normalization of target gene expressions. The mRNA levels in SCHH treated with AhR or CAR activators were expressed by a fold change, compared to the gene expressions without the treatment. The 2^−ΔΔCt method ([Livak and Schmittgen, 2001]) was used to analyze the relative changes in gene expression, where the Ct is the cycle number at which the fluorescence in the reaction crosses the preset arbitrary threshold; the ΔCt represents the difference between the Ct target and reference and the ΔΔCt is the difference between the ΔCt of the test and the ΔCt of the preassigned control. Gene expression for each condition is expressed as a fold-change of mean ± standard deviation (SD) from three independent donors (each performed in triplicate). All primer and probe sets were purchased from Life Technologies (Table 2). […]

CYP3A4 = assay: in vitro; details: greater than 50% reduction, in only two donors among three lots of hepatocytes
Protocol: as §1
A RNeasy 96 Kit (Qiagen) was used to extract the total cellular RNA from sandwich cultured hepatocytes in 96-well plates following the manufacturer's instructions. A total volume of 200 μL RNA was obtained via the column elution provided in the RNeasy kit. Five μL RNA extraction was mixed with TaqMan® Fast Virus 1-Step Master Mix (Life Technologies) in a final reaction volume of 20 μL and qRT-PCR was achieved using a QuantStudio 6 Flex Real-Time PCR System (Life Technologies), following the manufacturer's instructions. β-actin mRNA expression in the SCHH was used as a house-keeping gene for the normalization of target gene expressions. The mRNA levels in SCHH treated with AhR or CAR activators were expressed by a fold change, compared to the gene expressions without the treatment. […] Gene expression for each condition is expressed as a fold-change of mean ± standard deviation (SD) from three independent donors (each performed in triplicate). All primer and probe sets were purchased from Life Technologies (Table 2). When concentration-dependent induction observed, the in vitro induction mRNA data were fitted using the sigmoid 3-parameter equation in GraphPad Prism (La Jolla, CA) to estimate the in vitro concentration of inducer that produced half the maximum induction values (EC50).

CYP2C9 = details: SCHH, 72 h; TCDD 50 nM, OP 50 µM, CITCO 5 µM, PB 1,000 µM (highest conc.); mean ± SD, three donors
Protocol: as §1
A RNeasy 96 Kit (Qiagen) was used to extract the total cellular RNA from sandwich cultured hepatocytes in 96-well plates following the manufacturer's instructions. […] The 2^−ΔΔCt method ([Livak and Schmittgen, 2001]) was used to analyze the relative changes in gene expression, where the Ct is the cycle number at which the fluorescence in the reaction crosses the preset arbitrary threshold; the ΔCt represents the difference between the Ct target and reference and the ΔΔCt is the difference between the ΔCt of the test and the ΔCt of the preassigned control. Gene expression for each condition is expressed as a fold-change of mean ± standard deviation (SD) from three independent donors (each performed in triplicate). […]

UGT1A1 = assay: gene induction in sandwich-cultured human hepatocytes (qRT-PCR)
Protocol: as §1
(§2) A RNeasy 96 Kit (Qiagen) was used to extract the total cellular RNA from sandwich cultured hepatocytes in 96-well plates following the manufacturer's instructions. A total volume of 200 μL RNA was obtained via the column elution provided in the RNeasy kit. Five μL RNA extraction was mixed with TaqMan® Fast Virus 1-Step Master Mix (Life Technologies) in a final reaction volume of 20 μL and qRT-PCR was achieved using a QuantStudio 6 Flex Real-Time PCR System (Life Technologies), following the manufacturer's instructions. β-actin mRNA expression in the SCHH was used as a house-keeping gene for the normalization of target gene expressions. The mRNA levels in SCHH treated with AhR or CAR activators were expressed by a fold change, compared to the gene expressions without the treatment. The 2^−ΔΔCt method ([Livak and Schmittgen, 2001]) was used to analyze the relative changes in gene expression, where the Ct is the cycle number at which the fluorescence in the reaction crosses the preset arbitrary threshold; the ΔCt represents the difference between the Ct target and reference and the ΔΔCt is the difference between the ΔCt of the test and the ΔCt of the preassigned control. Gene expression for each condition is expressed as a fold-change of mean ± standard deviation (SD) from three independent donors (each performed in triplicate). All primer and probe sets were purchased from Life Technologies (Table 2). When concentration-dependent induction observed, the in vitro induction mRNA data were fitted using the sigmoid 3-parameter equation in GraphPad Prism (La Jolla, CA) to estimate the in vitro concentration of inducer that produced half the maximum induction values (EC50).

ABCB1 (MDR1) = assay: as above; type: cell-based; details: SCHH, 72 h; TCDD 50 nM, OP 50 µM, CITCO 5 µM, PB 1,000 µM (highest conc.); mean ± SD, three donors
Protocol: as §1, §2

ABCB11 (BSEP) = assay: as above; type: cell-based; details: SCHH, 72 h; TCDD 50 nM, OP 50 µM, CITCO 5 µM, PB 1,000 µM (highest conc.); mean ± SD, three donors
Protocol: as §1, §2

ABCC2 (MRP2) = assay: as above; type: cell-based; details: SCHH, 72 h; TCDD 50 nM, OP 50 µM, CITCO 5 µM, PB 1,000 µM (highest conc.); mean ± SD, three donors
Protocol: as §1, §2

ABCC3 (MRP3) = assay: as above; type: cell-based; details: SCHH, 72 h; TCDD 50 nM, OP 50 µM, CITCO 5 µM, PB 1,000 µM (highest conc.); mean ± SD, three donors
Protocol: as §1, §2

ABCC4 (MRP4) = assay: as above; type: cell-based; details: SCHH, 72 h; TCDD 50 nM, OP 50 µM, CITCO 5 µM, PB 1,000 µM (highest conc.); mean ± SD, three donors
Protocol: as §1, §2

ABCC5 (MRP5) = assay: as above; type: cell-based; details: SCHH, 72 h; TCDD 50 nM, OP 50 µM, CITCO 5 µM, PB 1,000 µM (highest conc.); mean ± SD, three donors
Protocol: as §1, §2

ABCC6 (MRP6) = assay: as above; type: cell-based; details: SCHH, 72 h; TCDD 50 nM, OP 50 µM, CITCO 5 µM, PB 1,000 µM (highest conc.); mean ± SD, three donors
Protocol: as §1, §2

SLC22A1 (OCT1) = assay: as above; type: cell-based; details: SCHH, 72 h; TCDD 50 nM, OP 50 µM, CITCO 5 µM, PB 1,000 µM (highest conc.); mean ± SD, three donors
Protocol: as §1, §2

SLC47A1 (MATE1) = assay: as above; type: cell-based; details: SCHH, 72 h; TCDD 50 nM, OP 50 µM, CITCO 5 µM, PB 1,000 µM (highest conc.); mean ± SD, three donors
Protocol: as §1, §2

SLCO1B1 (OATP1B1) = assay: as above; type: cell-based; details: SCHH, 72 h; TCDD 50 nM, OP 50 µM, CITCO 5 µM, PB 1,000 µM (highest conc.); mean ± SD, three donors
Protocol: as §1, §2

SLCO1B3 (OATP1B3) = assay: as above; type: cell-based; details: SCHH, 72 h; TCDD 50 nM, OP 50 µM, CITCO 5 µM, PB 1,000 µM (highest conc.); mean ± SD, three donors
Protocol: as §1, §2

SLCO2B1 (OATP2B1) = assay: as above; type: cell-based; details: SCHH, 72 h; TCDD 50 nM, OP 50 µM, CITCO 5 µM, PB 1,000 µM (highest conc.); mean ± SD, three donors
Protocol: as §1, §2

SLCO4C1 (OATP4C1) = assay: as above; type: cell-based; details: SCHH, 72 h; TCDD 50 nM, OP 50 µM, CITCO 5 µM, PB 1,000 µM (highest conc.); mean ± SD, three donors
Protocol: as §1, §2

SLC10A1 (NTCP) = assay: as above; type: cell-based; details: SCHH
Protocol: A RNeasy 96 Kit (Qiagen) was used to extract the total cellular RNA from sandwich cultured hepatocytes in 96-well plates following the manufacturer's instructions. A total volume of 200 μL RNA was obtained via the column elution provided in the RNeasy kit. Five μL RNA extraction was mixed with TaqMan® Fast Virus 1-Step Master Mix (Life Technologies) in a final reaction volume of 20 μL and qRT-PCR was achieved using a QuantStudio 6 Flex Real-Time PCR System (Life Technologies), following the manufacturer's instructions. β-actin mRNA expression in the SCHH was used as a house-keeping gene for the normalization of target gene expressions. The mRNA levels in SCHH treated with AhR or CAR activators were expressed by a fold change, compared to the gene expressions without the treatment. The 2^−ΔΔCt method ([Livak and Schmittgen, 2001]) was used to analyze the relative changes in gene expression, where the Ct is the cycle number at which the fluorescence in the reaction crosses the preset arbitrary threshold; the ΔCt represents the difference between the Ct target and reference and the ΔΔCt is the difference between the ΔCt of the test and the ΔCt of the preassigned control. Gene expression for each condition is expressed as a fold-change of mean ± standard deviation (SD) from three independent donors (each performed in triplicate). […] When concentration-dependent induction observed, the in vitro induction mRNA data were fitted using the sigmoid 3-parameter equation in GraphPad Prism (La Jolla, CA) to estimate the in vitro concentration of inducer that produced half the maximum induction values (EC50).

SLC15A1 (PEPT1) = assay: as above; type: cell-based; details: SCHH, 72 h; TCDD 50 nM, OP 50 µM, CITCO 5 µM, PB 1,000 µM (highest conc.); mean ± SD, three donors
SLC16A1 (MCT1) = assay: as above; type: cell-based; details: SCHH, 72 h; TCDD 50 nM, OP 50 µM, CITCO 5 µM, PB 1,000 µM (highest conc.); mean ± SD, three donors
SLC22A7 (OAT2) = assay: as above; type: cell-based; details: SCHH, 72 h; TCDD 50 nM, OP 50 µM, CITCO 5 µM, PB 1,000 µM (highest conc.); mean ± SD, three donors
SLC22A9 (OAT7) = assay: as above; type: cell-based; details: SCHH, 72 h; TCDD 50 nM, OP 50 µM, CITCO 5 µM, PB 1,000 µM (highest conc.); mean ± SD, three donors
SLC22A5 (OCTN2) = assay: as above; type: cell-based; details: SCHH, 72 h; TCDD 50 nM, OP 50 µM, CITCO 5 µM, PB 1,000 µM (highest conc.); mean ± SD, three donors
SLC29A1 (ENT1) = assay: as above; type: cell-based; details: SCHH, 72 h; TCDD 50 nM, OP 50 µM, CITCO 5 µM, PB 1,000 µM (highest conc.); mean ± SD, three donors
SLC29A2 (ENT2) = assay: as above; type: cell-based; details: SCHH, 72 h; TCDD 50 nM, OP 50 µM, CITCO 5 µM, PB 1,000 µM (highest conc.); mean ± SD, three donors
SLC51A (OSTα) = assay: as above; type: cell-based; details: SCHH, 72 h; TCDD 50 nM, OP 50 µM, CITCO 5 µM, PB 1,000 µM (highest conc.); mean ± SD, three donors
SLC51B (OSTβ) = assay: as above; type: cell-based; details: SCHH, 72 h; TCDD 50 nM, OP 50 µM, CITCO 5 µM, PB 1,000 µM (highest conc.); mean ± SD, three donors
[1] = SCHH, 72 h, TCDD 50 nM, OP 50 µM, CITCO 5 µM, PB 1,000 µM (highest conc.), mean ± SD, three donors

## Clc1cc2c(cc1Cl)Oc1cc(Cl)c(Cl)cc1O2 [TCDD, 2,3,7,8-tetrachlorodibenzo-p-dioxin]
CYP1A1; [1]
  CYP1A1 mRNA fold change: 38 fold and 38.1 ± 19.2 fold
CYP1A1; human
  EC50 at 72 h: 0.5 ± 0.11 nM
CYP3A4
  CYP3A4 mRNA fold change in single donors: < 0.5 fold
CYP2C9
  CYP2C9 mRNA fold change: 0.8 ± 0.3 fold
UGT1A1; [1]
  UGT1A1 mRNA fold change: 4.3 fold and 4.3 ± 1.5 fold
UGT1A1; human
  EC50 at 72 h: 1.56 ± 0.4 nM
ABCB1 (MDR1)
  ABCB1 (MDR1) mRNA fold change: 1.0 ± 0.3 fold
ABCB11 (BSEP)
  ABCB11 (BSEP) mRNA fold change: 0.7 ± 0.3 fold
ABCC2 (MRP2)
  ABCC2 (MRP2) mRNA fold change: 0.9 ± 0.3 fold
ABCC3 (MRP3)
  ABCC3 (MRP3) mRNA fold change: 1.0 ± 0.2 fold
ABCC4 (MRP4)
  ABCC4 (MRP4) mRNA fold change: 0.7 ± 0.2 fold
ABCC5 (MRP5)
  ABCC5 (MRP5) mRNA fold change: 0.9 ± 0.3 fold
ABCC6 (MRP6)
  ABCC6 (MRP6) mRNA fold change: 0.8 ± 0.2 fold
SLC22A1 (OCT1)
  SLC22A1 (OCT1) mRNA fold change: 0.7 ± 0.3 fold
SLC47A1 (MATE1)
  SLC47A1 (MATE1) mRNA fold change: 0.9 ± 0.3 fold
SLCO1B1 (OATP1B1)
  SLCO1B1 (OATP1B1) mRNA fold change: 1.0 ± 0.4 fold
SLCO1B3 (OATP1B3)
  SLCO1B3 (OATP1B3) mRNA fold change: 0.8 ± 0.5 fold
SLCO2B1 (OATP2B1)
  SLCO2B1 (OATP2B1) mRNA fold change: 1.1 ± 0.4 fold
SLCO4C1 (OATP4C1)
  SLCO4C1 (OATP4C1) mRNA fold change: 0.8 ± 0.3 fold
SLC10A1 (NTCP); 72 h, TCDD 50 nM, OP 50 µM, CITCO 5 µM, PB 1,000 µM (highest conc.), mean ± SD, three donors
  SLC10A1 (NTCP) mRNA fold change: 0.5 ± 0.2 fold
SLC10A1 (NTCP); 3 days, highest concentration treated
  SLC10A1 gene suppression (reduction): about 2 fold
SLC15A1 (PEPT1)
  SLC15A1 (PEPT1) mRNA fold change: 1.2 ± 0.3 fold
SLC16A1 (MCT1)
  SLC16A1 (MCT1) mRNA fold change: 1.0 ± 0.2 fold
SLC22A7 (OAT2)
  SLC22A7 (OAT2) mRNA fold change: 0.8 ± 0.2 fold
SLC22A9 (OAT7)
  SLC22A9 (OAT7) mRNA fold change: 0.9 ± 0.2 fold
SLC22A5 (OCTN2)
  SLC22A5 (OCTN2) mRNA fold change: 1.1 ± 0.2 fold
SLC29A1 (ENT1)
  SLC29A1 (ENT1) mRNA fold change: 0.9 ± 0.4 fold
SLC29A2 (ENT2)
  SLC29A2 (ENT2) mRNA fold change: 1.0 ± 0.2 fold
SLC51A (OSTα)
  SLC51A (OSTα) mRNA fold change: 1.5 ± 0.3 fold
SLC51B (OSTβ)
  SLC51B (OSTβ) mRNA fold change: 1.6 ± 0.3 fold
